Results from patent US6710048B2, “Pyrazine derivatives as modulators of tyrosine kinases” (Ortho-McNeil Pharmaceutical, Inc., priority 2000, dated 2004).
Read-outs that look alike come from different tables or passages of the source.

Target: T1, CDK1 (cyclin dependent kinase 1) / cyclin B (Homo sapiens, UniProt P06493)
T1 construct: purchased New England Biolabs 6020; host or cells: insect cells
Experiment: CDK1 kinase assay
Assay type: biochemical
Protocol: The term n.d. means not tested.
Assays to test compound inhibition of other kinases were preformed using methods that measure the amount of phosphorylation of a biotinylated peptide substrate. Biotinylated peptide substrates were selected from the literature as appropriate for the enzyme being evaluated. The general procedure used to assay for kinase activity is as follows: A kinase reaction mix was prepared in 50 mM Tris-HCl pH=8, 10 mM MgCl2, 0.1 mM NaVO4, 1 mM DTT, 5-10 μM ATP, 0.25-1 μM biotinylated peptide substrate, 0.2-0.8 μCuries per well ^33P-γ-ATP [2000-3000 Ci/mmol]. Assay conditions vary slightly for each protein kinase, for example, insulin receptor kinase requires 10 mM MnCl2 for activity and Calmodulin-dependent protein kinase requires calmodulin and 2 mM CaCl2. The reaction mixture was dispensed into the wells of a streptavidin coated Flashplate and 1 μl drug stock in 100% DMSO was added to a 100 μl reaction volume resulting in a final concentration of 1% DMSO in the reaction. Enzyme was diluted in 50 mM Tris-HCl pH=8.0, 0.1% BSA and added to each well. The reaction was incubated for one hour at 30° C. in the presence of compound. After one hour the reaction mix was aspirated from the plate and the plate was washed with PBS containing 100 mM EDTA. The plate was read on a scintillation counter to determine ^33P-γ-ATP incorporated into the immobilized peptide. […] A maximum and minimum signal for the assay was determined on each plate. The IC50 was calculated from the dose response curve of the percent inhibition of the maximum signal in the assay according to the formula [max signal−background/test compound signal−background (100)=% inhibition] by graphing the percent inhibition against the log concentration of test compound. Known inhibitor compounds appropriate for the kinase being assayed were also included on each plate.
VEGF-R (vascular endothelial growth factor receptor-2) is a fusion protein containing a polyhistidine tag at the N-terminus followed by amino acids 786-1343 of the rat VEGF-R2 kinase domain (GenBank Accession #U93306). CDK1 (cyclin dependent kinase 1) is isolated from insect cells expressing both the human CDK1 catalytic subunit and its positive regulatory subunit cyclin B (New England Biolabs, Beverly, Mass., Cat. #6020). CDK4 (cyclin dependent kinase 4) contains amino acids 769 to 921 of the mouse […] protein found in the GST-retinoblastoma protein construct (Santa Cruz Biotechnology, Santa Cruz, Calif.; Cat. #SC-4112). Insulin Receptor Kinase consists of residues 941-1313 of the cytoplasmic domain of the beta-subunit of the human insulin receptor (BIOMOL, Plymouth Meeting, Pa., Cat. #SE-195). Protein Kinase A is the catalytic subunit of cAMP dependent protein kinase-A purified from bovine heart (Upstate Biotech, Lake Placid, N.Y., Cat#14-114). PKC (protein kinase-C) is the gamma or beta isoform of the human protein produced in insect cells (BIOMOL, Plymouth Meeting, Pa., Cat. #SE-143). Casein Kinase 1 is a truncation at amino acid 318 of the C-terminal portion of the rat CK1 delta isoform produced in E.coli (New England Biolabs, Beverly, Mass., Cat. #6030). Casein Kinase 2 includes the alpha and beta subunits of the human CK2 protein produced in E.coli (New England Biolabs, Beverly, Mass., Cat. #6010). Calmodulin Kinase (calmodulin-dependent protein kinase 2) is a truncated version of the alpha subunit of the rat protein produced in insect cells (New England Biolabs, Beverly, Mass., Cat. #6060). Glycogen Synthase Kinase-3 is the beta isoform of the rabbit enzyme produced in E. coli (New England Biolabs, Beverly, Mass., Cat. #6040). MAP Kinase is the rat ERK-2 isoform containing a polyhistidine tag at the N-terminus produced in E. coli. and activated by phosphorylation with MEK1 prior to purification (BIOMOL, Plymouth Meeting, Pa., Cat. #SE-137). EGFR (epidermal growth factor receptor) is purified from human A431 cell membranes (Sigma, St. Louis, Mo., Cat.# E3641). […]

[1] = Table 4 kinase selectivity, 10 = approximate value, read-out: IC50, Assay 2 CDK1
[2] = Tables 1-3, >10 or >100 = no 50% inhibition at highest dose tested, read-out: CDK IC50

T1 sequence (P06493 whole entry): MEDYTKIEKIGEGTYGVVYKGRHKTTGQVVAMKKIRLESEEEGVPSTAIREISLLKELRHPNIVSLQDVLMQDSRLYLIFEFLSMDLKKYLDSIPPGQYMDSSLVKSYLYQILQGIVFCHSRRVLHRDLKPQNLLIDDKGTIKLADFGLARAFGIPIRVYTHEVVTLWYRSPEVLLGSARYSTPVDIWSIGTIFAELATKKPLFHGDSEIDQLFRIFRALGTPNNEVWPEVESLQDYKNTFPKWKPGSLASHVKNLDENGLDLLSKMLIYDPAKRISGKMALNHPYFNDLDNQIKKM
T1 sequence (P14635 whole entry partner): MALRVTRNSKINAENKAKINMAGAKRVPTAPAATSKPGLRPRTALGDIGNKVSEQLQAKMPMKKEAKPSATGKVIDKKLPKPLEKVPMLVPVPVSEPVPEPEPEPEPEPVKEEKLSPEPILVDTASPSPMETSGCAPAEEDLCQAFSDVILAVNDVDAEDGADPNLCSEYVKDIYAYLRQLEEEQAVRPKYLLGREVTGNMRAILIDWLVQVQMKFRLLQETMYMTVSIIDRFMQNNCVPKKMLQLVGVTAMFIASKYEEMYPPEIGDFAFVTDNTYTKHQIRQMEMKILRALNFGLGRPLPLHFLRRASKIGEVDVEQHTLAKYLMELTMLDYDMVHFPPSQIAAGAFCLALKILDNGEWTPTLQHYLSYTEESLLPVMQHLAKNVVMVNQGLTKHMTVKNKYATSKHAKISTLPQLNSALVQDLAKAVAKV

| IC50 [1] [µM] | IC50 [2] [µM] | SMILES |
| --- | --- | --- |
| > 10 | 5.96 | OCCCNc1cncc(-c2cncc(Nc3cccc(Cl)c3)n2)c1 [Cmd 4] |
| > 10 | ~10 | CN(C)CCNc1cncc(-c2cncc(Nc3cccc(Cl)c3)n2)c1 [Cmd 33, N′-[5-[6-[(3-chlorophenyl)amino]pyrazinyl]-3-pyridinyl]-N^2,N^2-dimethyl-1,2-ethanediamine] |
| > 100 | > 10 | Clc1cccc(Nc2cncc(-c3cncc(NCCCc4ccncc4)c3)n2)c1 [Cmd 71] |
| > 100 | > 10 | Clc1cccc(Nc2cncc(-c3cncc(NCCCc4cccnc4)c3)n2)c1 [Cmd 72] |
| 6.1 | 3.24 | Clc1cccc(Nc2cncc(-c3cncc(NCCCN4CCCCC4)c3)n2)c1 [Cmd 73] |

More lines, now with the values behind:

| SMILES | IC50 [1] [µM] | IC50 [2] [µM] |
| --- | --- | --- |
| OCCCCNc1cncc(-c2cncc(Nc3cccc(Cl)c3)n2)c1 [Cmd 32] | > 100 | > 100 |
| CN(C)CCCNc1cncc(-c2cncc(Nc3cccc(Cl)c3)n2)c1 [Cmd 35] | > 10 | ~10 |
| O=C(NCCCO)c1cncc(-c2cncc(Nc3cccc(Cl)c3)n2)c1 [Cmd 39] | 34.8 | 34.8 |
| Clc1cccc(Nc2cncc(-c3cncc(NCCCn4cccn4)c3)n2)c1 [Cmd 75] | > 100 | > 10 |
| Clc1cccc(Nc2cncc(-c3cncc(NCCCn4cncn4)c3)n2)c1 [Cmd 76] | > 100 | > 10 |
